# According to PubChem BioAssay (NCI):
#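 Tested at 5 concentrations; 48 h exposure; 96-well plates; endpoints linearly interpolated, else capped at highest concentration. Abbreviation: GI50, concentration required for 50% inhibition of growth. The concentration for full growth arrest is given as TGI.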
# Legend:
# Assay in all cases: NCI-60 cell line screen, 48 h
# SF-539 CNS = test system: SF-539 CNS
# SN12C renal = test system: SN12C renal
# SK-MEL-5 melanoma = test system: SK-MEL-5 melanoma
# SK-OV-3 ovarian = test system: SK-OV-3 ovarian
# HCT-116 colon = test system: HCT-116 colon
# SF-268 CNS = test system: SF-268 CNS
# DU-145 prostate = test system: DU-145 prostate
# M14 melanoma = test system: M14 melanoma
# UACC-62 melanoma = test system: UACC-62 melanoma
# TK-10 renal = test system: TK-10 renal
# SNB-75 CNS = test system: SNB-75 CNS
# SW-620 colon = test system: SW-620 colon
# KM12 colon = test system: KM12 colon
# ACHN renal = test system: ACHN renal
# MCF7 breast = test system: MCF7 breast
# A498 renal = test system: A498 renal
# SR leukemia = test system: SR leukemia
# SNB-19 CNS = test system: SNB-19 CNS
# MDA-MB-435 = test system: MDA-MB-435
# HCC-2998 colon = test system: HCC-2998 colon
# CCRF-CEM leukemia = test system: CCRF-CEM leukemia
# NCI-H522 lung = test system: NCI-H522 lung
# OVCAR-4 ovarian = test system: OVCAR-4 ovarian
# HOP-92 NSCLC = test system: HOP-92 NSCLC
# SK-MEL-28 melanoma = test system: SK-MEL-28 melanoma
# OVCAR-8 ovarian = test system: OVCAR-8 ovarian
# SK-MEL-2 melanoma = test system: SK-MEL-2 melanoma
# UO-31 renal = test system: UO-31 renal
# 786-0 renal = test system: 786-0 renal
# NCI-H460 lung = test system: NCI-H460 lung
# HT29 colon = test system: HT29 colon
# MOLT-4 leukemia = test system: MOLT-4 leukemia
# RXF 393 renal = test system: RXF 393 renal
# UACC-257 melanoma = test system: UACC-257 melanoma
# HOP-62 NSCLC = test system: HOP-62 NSCLC
# NCI/ADR-RES ovarian = test system: NCI/ADR-RES ovarian
# RPMI-8226 leukemia = test system: RPMI-8226 leukemia
# BT-549 breast = test system: BT-549 breast
# PC-3 prostate = test system: PC-3 prostate
# CAKI-1 renal = test system: CAKI-1 renal
# OVCAR-3 ovarian = test system: OVCAR-3 ovarian
# U251 CNS = test system: U251 CNS
# MALME-3M melanoma = test system: MALME-3M melanoma
# IGROV1 ovarian = test system: IGROV1 ovarian
# A549 NSCLC = test system: A549 NSCLC
# COLO 205 colon = test system: COLO 205 colon
# HCT-15 colon = test system: HCT-15 colon
# HS 578T breast = test system: HS 578T breast
# OVCAR-5 ovarian = test system: OVCAR-5 ovarian
# MDA-MB-231 breast = test system: MDA-MB-231 breast
compound,measurement,setting,value
O=C1Nc2cc(OC(F)(F)F)ccc2Oc2ccc(-c3ccnc(N4CCNCC4)c3)cc21,GI50,SF-539 CNS,1.58 µM
same,TGI,SF-539 CNS,2.98 µM
same,GI50,SN12C renal,1.79 µM
same,TGI,SN12C renal,3.62 µM
same,GI50,SK-MEL-5 melanoma,1.62 µM
same,TGI,SK-MEL-5 melanoma,3.01 µM
same,GI50,SK-OV-3 ovarian,2.57 µM
same,TGI,SK-OV-3 ovarian,6.79 µM
same,GI50,HCT-116 colon,1 µM
same,TGI,HCT-116 colon,2.17 µM
same,GI50,SF-268 CNS,1.7 µM
same,TGI,SF-268 CNS,3.48 µM
same,GI50,DU-145 prostate,1.65 µM
same,TGI,DU-145 prostate,3.08 µM
same,GI50,M14 melanoma,1.23 µM
same,TGI,M14 melanoma,2.54 µM
same,GI50,UACC-62 melanoma,1.65 µM
same,TGI,UACC-62 melanoma,3.15 µM
same,GI50,TK-10 renal,1.5 µM
same,TGI,TK-10 renal,3.47 µM
same,GI50,SNB-75 CNS,1.5 µM
same,TGI,SNB-75 CNS,2.86 µM
same,GI50,SW-620 colon,0.516 µM
same,TGI,SW-620 colon,1.73 µM
same,GI50,KM12 colon,0.9 µM
same,TGI,KM12 colon,2.74 µM
same,GI50,ACHN renal,1.68 µM
same,TGI,ACHN renal,3.05 µM
same,GI50,MCF7 breast,0.84 µM
same,TGI,MCF7 breast,> 100 µM
same,GI50,A498 renal,1.6 µM
same,TGI,A498 renal,2.95 µM
same,GI50,SR leukemia,0.345 µM
same,TGI,SR leukemia,1.82 µM
same,GI50,SNB-19 CNS,1.55 µM
same,TGI,SNB-19 CNS,3.14 µM
same,GI50,MDA-MB-435,0.282 µM
same,TGI,MDA-MB-435,1.03 µM
same,GI50,HCC-2998 colon,1.33 µM
same,TGI,HCC-2998 colon,2.69 µM
same,GI50,CCRF-CEM leukemia,1.87 µM
same,TGI,CCRF-CEM leukemia,6.76 µM
same,GI50,NCI-H522 lung,1.59 µM
same,TGI,NCI-H522 lung,3.16 µM
same,GI50,OVCAR-4 ovarian,1.62 µM
same,TGI,OVCAR-4 ovarian,3.25 µM
same,GI50,HOP-92 NSCLC,1.17 µM
same,TGI,HOP-92 NSCLC,2.51 µM
same,GI50,SK-MEL-28 melanoma,1.39 µM
same,TGI,SK-MEL-28 melanoma,2.73 µM
same,GI50,OVCAR-8 ovarian,1.58 µM
same,TGI,OVCAR-8 ovarian,3 µM
same,GI50,SK-MEL-2 melanoma,1.47 µM
same,TGI,SK-MEL-2 melanoma,2.93 µM
same,GI50,UO-31 renal,1.34 µM
same,TGI,UO-31 renal,2.66 µM
same,GI50,786-0 renal,1.53 µM
same,TGI,786-0 renal,2.89 µM
same,GI50,NCI-H460 lung,0.655 µM
same,TGI,NCI-H460 lung,1.94 µM
same,GI50,HT29 colon,0.764 µM
same,TGI,HT29 colon,2.06 µM
same,GI50,MOLT-4 leukemia,1.08 µM
same,TGI,MOLT-4 leukemia,3.29 µM
same,GI50,RXF 393 renal,1.39 µM
same,TGI,RXF 393 renal,2.84 µM
same,GI50,UACC-257 melanoma,1.55 µM
same,TGI,UACC-257 melanoma,3.05 µM
same,GI50,HOP-62 NSCLC,1.6 µM
same,TGI,HOP-62 NSCLC,3.26 µM
same,GI50,NCI/ADR-RES ovarian,1.61 µM
same,TGI,NCI/ADR-RES ovarian,3.5 µM
same,GI50,RPMI-8226 leukemia,1.84 µM
same,TGI,RPMI-8226 leukemia,4.78 µM
same,GI50,BT-549 breast,1.95 µM
same,TGI,BT-549 breast,3.74 µM
same,GI50,PC-3 prostate,1.29 µM
same,TGI,PC-3 prostate,2.87 µM
same,GI50,CAKI-1 renal,1.15 µM
same,TGI,CAKI-1 renal,2.43 µM
same,GI50,OVCAR-3 ovarian,1.12 µM
same,TGI,OVCAR-3 ovarian,2.49 µM
same,GI50,U251 CNS,1.46 µM
same,TGI,U251 CNS,2.85 µM
same,GI50,MALME-3M melanoma,1.26 µM
same,TGI,MALME-3M melanoma,2.74 µM
same,GI50,IGROV1 ovarian,1.2 µM
same,TGI,IGROV1 ovarian,2.55 µM
same,GI50,A549 NSCLC,1.13 µM
same,TGI,A549 NSCLC,2.51 µM
same,GI50,COLO 205 colon,1.54 µM
same,TGI,COLO 205 colon,3.08 µM
same,GI50,HCT-15 colon,0.864 µM
same,TGI,HCT-15 colon,4.56 µM
same,GI50,HS 578T breast,1.7 µM
same,TGI,HS 578T breast,3.98 µM
same,GI50,OVCAR-5 ovarian,1.46 µM
same,TGI,OVCAR-5 ovarian,3.29 µM
same,GI50,MDA-MB-231 breast,1.61 µM
same,TGI,MDA-MB-231 breast,3.18 µM
